The assay concerns HSV-1. The assay can be described thus: HSV-1 infection of Vero 76 cells, viral DNA detected by hybridization capture (chemiluminescence). The assay is classed as cell-based. Particulars: Human alphaherpesvirus 1; HSV-1 in Vero 76 cells, MOI=0.001, 40-48 hours at 37° C. The protocol: Vero 76 cells were maintained in MEM with Earle's salts, L-glutamine, 8% FBS (Hyclone, A-1111-L) and 100 units/mL Penicillin-100 μg/mL Streptomycin. For assay conditions, FBS was reduced to 2%. Cells are seeded into 96-well tissue culture plates at a density of 5×10^4 cells/well after being incubated for 45 min at 37° C. in the presence of HSV-1 or HSV-2 (MOI=0.001). Test compounds are added to the wells and the plates are incubated at 37° C. for 40-48 hours. Cell lysates are prepared as follows: media was removed and replaced with 150 VL/well 0.2 N NaOH with 1% Igepal CA 630 or NP-40. Plates were incubated up to 14 days at room temperature in a humidified chamber to prevent evaporation.
For the detection probe, a gel-purified, digoxigenin-labeled, 710-bp PCR fragment of the HSV UL-15 sequence was utilized. […]
Twenty-seven (27) μL of cell lysate was combined with 45 μL of hybridization solution (final concentration: 3M GuSCN, 50 mM EDTA, 100 μg/ml salmon sperm DNA, 5× Denhardt's solution, 0.25×APE, and 5 ng of the digoxigenin-labeled detection probe). […] The plates were incubated at room temperature for 30 minutes and chemiluminescence was measured in a Wallac Victor reader.

In general, IC50 refers to the concentration at which inhibition is half-maximal. Read a low IC50 as greater potency in that assay.

In turn, `CCSc1cc(Cl)cc2c(-c3ccnc(NC4CCCC4)n3)c(-c3ccc(F)cc3)nn12` [Example 32, N-{4-[5-Chloro-7-(ethylsulfanyl)-2-(4-fluorophenyl)pyrazolo[1,5-α]pyridin-3-yl]-2-pyrimidinyl}-N-cyclopentylamine] showed an IC50 of 2 µM. In the case of `CSc1cc(N2CCOCC2)cc2c(-c3ccnc(NC4CCCC4)n3)c(-c3ccc(F)cc3)nn12` [Example 44, N-Cyclopentyl-4-[2-(4-fluorophenyl)-7-(methylthio)-5-morpholin-4-ylpyrazolo[1,5-α]pyridin-3-yl]pyrimidin-2-amine] it was 0.5 µM.

Source of the values: patent US7109209B2, “Pyrazolopyridines, process for their preparation and use as therapeutic compounds” (SmithKline Beecham Corporation, priority 2001, dated 2006).
